In PMC12362587, “Untargeted Diversity-Oriented Synthesis for the Discovery of New Antitumor Agents: An Integrated Approach of Inverse Virtual Screening, Bioinformatics, and Omics for Target Deconvolution” (Journal of Medicinal Chemistry, 2025):

Assays:
A375 cells = assay: Annexin V-FITC staining (apoptosis, flow cytometry); assay type: cell-based, human; settings: 72 h
Procedure: Given the cytotoxic role of the compounds, an annexin V-FITC staining was performed to evaluate their effects on cell apoptosis.
Apoptosis of the cells was assessed using the Annexin V-FITC/PI reagents. A375 cells (3 × 10^4 cells/well) were seeded into 24-well plates and incubated for 72 h with compounds (5, 2.5, and 1.25 μM). After treatment, the collected cells were resuspended in a 100 μL assay buffer, then 5 μL Annexin V-FITC and 1 μL PI reagents were added following an incubation for 20 min at room temperature according to the manufacturer’s protocol (Dead Cell Apoptosis Kits with Annexin V for Flow Cytometry, Thermo Fisher Scientific). Cells were analyzed with a Becton Dickinson FACScan flow cytometer using the Cell Quest software, version 4 (Franklin Lakes, NJ, USA).

[1] = target: T1, G-protein coupled receptor 55 (Homo sapiens, UniProt Q9Y2T6); assay: Cell Based Antagonist Arrestin LeadHunter Assay; settings: Eurofins, read-out: EC50 or IC50, G-protein coupled receptor 55, antagonist mode
T1 construct: Eurofins (contract assay)
T1 sequence (Q9Y2T6 whole entry): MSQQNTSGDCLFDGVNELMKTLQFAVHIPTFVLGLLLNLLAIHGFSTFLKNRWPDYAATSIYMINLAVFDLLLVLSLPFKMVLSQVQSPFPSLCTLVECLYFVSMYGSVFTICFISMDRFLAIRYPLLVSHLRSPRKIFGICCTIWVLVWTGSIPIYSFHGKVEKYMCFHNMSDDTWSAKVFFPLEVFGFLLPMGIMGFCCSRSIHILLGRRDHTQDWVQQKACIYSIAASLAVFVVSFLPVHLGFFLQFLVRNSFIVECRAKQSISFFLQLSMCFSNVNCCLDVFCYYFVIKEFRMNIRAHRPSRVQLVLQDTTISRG
Text: (§1) For displacement assays on G-protein coupled receptor 55 (GPR55), Vasopressin V2 receptor (V2R), Adenosine A1 receptor (A1AR), Fibroblast growth factor receptor 1 (FGFR1), Vascular endothelial growth factor receptor 2 (VEGFR2), Platelet-derived growth factor receptor beta (PDGFRB), Vascular endothelial growth factor receptor 1 (VEGFR1), Thromboxane Synthase (TXS) and Phosphodiesterase 10A (PDE10A), we commissioned the Eurofins company which employed its specific experimental methods, accessible at the link: https://www.eurofins.com/.

BRD4(BD1) = target: T2, BRD4(BD1) (Homo sapiens, UniProt O60885); assay: BRD4 (BD1) Inhibitor Screening Assay Kit (AlphaScreen); assay type: binding; settings: read-out: EC50 or IC50, bromodomain-containing protein 4
T2 construct: purchased BPS Bioscience (printed as 'BSP') 32514
Procedure: Compounds were first tested in triplicate at a concentration of 10 μM, using (+)-JQ1 as reference compound.
After that, 10 μL of acceptor and donor beads (250-fold diluted) were added, protecting them from light. The results were measured 60 min later using the Enspire microplate analyzer (PerkinElmer, California, USA). Each compound was tested in triplicate, and GraphPad Prism (version 8.0) was used to analyze the data, employing the equation log­(inhibitor) vs normalized response-variable slope

HEPG2 = assay: MTT cell viability assay; assay type: cell-based; settings: Homo sapiens, 24 h, compounds 0.01–40 μM, read-out: In Vitro Cytotoxicity, EC50 ± SD, HEPG2
Text: (§2) Initially, we phenotypically screened the synthesized compounds over a panel of tumor cell lines composed of HEPG2, A375, SHSY5Y, MCF7, and A549 derived from liver tumor, melanoma, neuroblastoma, breast cancer, and lung adenocarcinoma, respectively. We also considered the HaCaT cell line, coming from keratinocytes, as a healthy control line. As reference, cytotoxic chemotherapeutic agent 5-fluorouracil (5-FU) has been used. The results obtained performing the MTT (3-(4,5-dimethylthiazolyl-2)-2,5-diphenyltetrazolium bromide) assay are summarized in Table .
The human hepatoma HEPG2 cell line was obtained from American Type Culture Collection (ATCC, Rockville, MD, USA). Cells were grown in Eagle’s Minimum Essential Medium (EMEM) supplemented with 10% (v/v) fetal bovine serum (FBS), 2 mM L-glutamine, 1% (v/v) nonessential amino acids, 100 U/mL penicillin, and 0.1 mg/mL streptomycin.
(§3) Cell viability was established by measuring mitochondrial metabolic activity with MTT. In brief, HEPG2 (1 × 10^4 cells/well), A375 (2 × 10^3 cells/well), HaCaT (3 × 10^3 cells/well), A549 (3 × 10^3 cells/well), SHSY5Y (2 × 10^4 cells/well), and MCF 7 (5 × 10^3 cells/well) were plated into 96-well plates for 24 h, then the compounds (0.01–40 μM) were added. After 24h, cells were replaced with a fresh medium containing 0.5 mg/mL MTT. Cells were incubated 1–3 h at 37 °C, then the medium was discarded, and formazan blue crystals in the cells were dissolved in 100 μL per well of a solution containing isopropanol/HCl 0.1 M. The absorbance was measured at 570 nm using a microplate reader (Multiskan Go, Thermo Scientific, Waltham, MA, USA). Cell viability was expressed as a percentage relative to the untreated cells cultured in medium with 0.1% DMSO and set to 100%, whereas 10% DMSO was used as positive control and set to 0% of viability. The EC50 values were calculated using GraphPad Prism 8.0 software by nonlinear regression of dose–response inhibition.

[2] = target: T3, serine/threonine-protein kinase B-raf (V600E) (Homo sapiens, UniProt P15056, V600E); assay: B-Raf kinase assay (V600E; BPS Bioscience); assay type: biochemical; settings: top concentration 30 μM, read-out: EC50 or IC50, serine/threonine-protein kinase B-raf
T3 construct: purchased BPS Bioscience
T3 sequence (P15056 whole entry V600E): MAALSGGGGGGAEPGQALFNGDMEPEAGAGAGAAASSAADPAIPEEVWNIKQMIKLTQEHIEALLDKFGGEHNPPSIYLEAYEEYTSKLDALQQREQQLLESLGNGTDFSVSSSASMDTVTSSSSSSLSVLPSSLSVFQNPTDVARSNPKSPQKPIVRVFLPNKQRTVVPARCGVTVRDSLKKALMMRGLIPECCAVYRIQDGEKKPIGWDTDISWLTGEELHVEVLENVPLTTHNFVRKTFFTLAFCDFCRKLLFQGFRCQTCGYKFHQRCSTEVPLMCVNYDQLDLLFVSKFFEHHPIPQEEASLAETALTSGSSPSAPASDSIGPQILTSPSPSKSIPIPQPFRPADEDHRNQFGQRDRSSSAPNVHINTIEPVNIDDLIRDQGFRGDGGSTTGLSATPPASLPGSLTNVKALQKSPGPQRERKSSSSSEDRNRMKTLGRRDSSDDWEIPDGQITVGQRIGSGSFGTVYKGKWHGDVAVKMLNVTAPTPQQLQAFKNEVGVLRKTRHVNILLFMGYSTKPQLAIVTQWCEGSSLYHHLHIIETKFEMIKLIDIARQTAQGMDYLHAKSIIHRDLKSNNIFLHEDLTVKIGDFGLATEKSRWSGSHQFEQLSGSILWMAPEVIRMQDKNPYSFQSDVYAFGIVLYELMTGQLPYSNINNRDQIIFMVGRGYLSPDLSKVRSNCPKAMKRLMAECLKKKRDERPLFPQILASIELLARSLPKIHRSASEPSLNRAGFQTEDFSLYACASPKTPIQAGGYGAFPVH
Procedure: The assay was performed in a volume of 50 μL in a 96-well white plate. The B-Raf kinase assay (V600E; BPS Bioscience, USA) was designed to measure B-Raf kinase activity by the use of Kinase-Glo MAX (Promega, USA), which detects ATP residual following the kinase reaction. For activity measurement, the kinase (final concentration, 2 ng per reaction), Raf substrate and ATP (final concentration, 500 μM), and compounds were incubated for 45 min at 30 °C. The compounds were added at different concentrations in the reaction buffer, starting from a final concentration of 30 μM. Buffer with the same amount of DMSO (1%) was used as a negative control. After the incubation time, Kinase-Glo MAX detection reagent was added for 15 min at room temperature. The generated luminescent signal was read in end point mode using a PerkinElmer AlphaScreen multimodal plate reader (PerkinElmer, Waltham, MA, USA). Experiments were performed in triplicate. IC50 values were calculated with GraphPad Prism 8.0 software by nonlinear dose–response inhibition regression.

human recombinant CB1R = human recombinant CB1R (Homo sapiens, UniProt P21554); assay: Competition binding assay, displacement of [3H]-CP-55,940; settings: displacement of [3H]-CP-55,940, HEK-293 membranes; read-out: EC50 or IC50, cannabinoid receptor 1
Sequence of human recombinant CB1R (P21554 whole entry): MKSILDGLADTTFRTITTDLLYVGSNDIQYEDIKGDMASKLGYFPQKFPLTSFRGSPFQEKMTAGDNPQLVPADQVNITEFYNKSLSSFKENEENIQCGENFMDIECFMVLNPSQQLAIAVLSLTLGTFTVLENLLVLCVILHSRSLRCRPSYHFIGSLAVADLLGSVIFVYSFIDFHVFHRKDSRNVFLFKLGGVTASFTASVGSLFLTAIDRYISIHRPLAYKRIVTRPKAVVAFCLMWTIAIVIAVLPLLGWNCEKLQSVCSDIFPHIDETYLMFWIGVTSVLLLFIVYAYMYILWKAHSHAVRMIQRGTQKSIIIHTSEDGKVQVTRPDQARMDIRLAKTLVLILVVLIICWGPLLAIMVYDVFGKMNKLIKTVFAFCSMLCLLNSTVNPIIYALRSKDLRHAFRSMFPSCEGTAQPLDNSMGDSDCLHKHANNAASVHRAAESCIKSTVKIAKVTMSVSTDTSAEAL
Procedure: Binding assays at equilibrium were conducted as described in Di Micco et al., 2024. […]. All compounds were evaluated following the manufacturer’s protocol (PerkinElmer distributed by Revvity, Italy). […] The K i values were calculated using the Cheng-Prusoff equation, based on the IC50 values obtained through GraphPad PRISM software (version 10.2.2). The results are expressed as K i (μM), represented as mean ± SEM, and reflect the average of three independent experiments performed in duplicate.

[3] = target: T1, G-protein coupled receptor 55; assay: Cell Based Agonist Arrestin LeadHunter Assay; settings: Eurofins, read-out: EC50 or IC50, G-protein coupled receptor 55, agonist mode
Text: as §1

MTT cell viability assay = assay type: cell-based, human; settings: human, HaCaT keratinocyte cells (healthy control line), 24 h, compounds 0.01–40 μM, healthy control line, read-out: In Vitro Cytotoxicity, EC50 ± SD, HaCaT
Text: as §2
The human neuroblastoma SHSY5Y, melanoma A375, human breast cancer MCF7, nonsmall lung cancer A549, and human epidermal keratinocyte HaCaT cell lines were obtained from ATCC and were grown in Dulbecco’s Modified Eagle Medium (DMEM) supplemented with 10% (v/v) FBS, 2 mM L-glutamine, 100 U/mL penicillin, and 0.1 mg/mL streptomycin.
as §3

Row | Structure (SMILES) | percentage of apoptotic cells (A375 cells; 1.25 μM) [%] | percentage of apoptotic cells (A375 cells; 2.5 μM) [%] | percentage of apoptotic cells (A375 cells; 5 μM) [%] | IC50 [1] [µM] | IC50 (BRD4(BD1)) [µM] | EC50 (HEPG2) [µM] | IC50 [2] [µM] | IC50 (human recombinant CB1R) [µM] | EC50 [3] [µM] | EC50 at 24 h (MTT cell viability assay) [µM]
1 | CC(C)C[C@H]1C(=O)N(Cc2ccc(C(F)(F)F)cc2)c2ccccc2C(=O)N1Cc1ccc(C(F)(F)F)cc1 [Compound 31, (S)-3-Isobutyl-1,4-bis(4-(trifluoromethyl)benzyl)-3,4-dihydro-1H-benzo[e][1,4]diazepine-2,5-dione] | 20.40 ± 4.56 | 81.10 ± 3.89 | 88.68 ± 2.10 | ≥ 30 | 1.19 ± 0.29 | 12 ± 3.51 | ≥ 30 | > 30 | ≥ 30 | > 40
2 | CC(C)C[C@@H](C(=O)OCc1ccccc1)N1Cc2ccccc2NC1=O [Compound 63, Benzyl (S)-4-Methyl-2-(2-oxo-1,4-dihydroquinazolin-3(2H)-yl)pentanoate] | 16.52 ± 3.24 | 58.90 ± 1.89 | 71.25 ± 0.11 | ≥ 30 | 0.11 ± 0.09 | 2.17 ± 0.96 | ≥ 30 | > 30 | ≥ 30 | 21.4 ± 0.78
